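Results reflect a 48-hour exposure of cells in 96-well plates to compound at five concentrations. TGI denotes the concentration required for complete inhibition of growth.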
Columns and labels:
Assay in all cases: DTP human tumour cell line panel, 48 h
[1] = test system: SF-268 CNS
[2] = test system: NCI-H23 lung
[3] = test system: RXF 393 renal
[4] = test system: DLD-1 colon
[5] = test system: LXFL 529 NSCLC
[6] = test system: HCT-15 colon
[7] = test system: OVCAR-4 ovarian
[8] = test system: SF-295 CNS
[9] = test system: SW-620 colon
[10] = test system: SK-MEL-28 melanoma
[11] = test system: RPMI-8226 leukemia
[12] = test system: UACC-62 melanoma
[13] = test system: LOX IMVI melanoma
[14] = test system: SK-OV-3 ovarian
[15] = test system: SF-539 CNS
[16] = test system: A549 NSCLC
[17] = test system: U251 CNS
[18] = test system: HOP-62 NSCLC
[19] = test system: NCI-H522 lung
[20] = test system: SN12C renal
[21] = test system: EKVX NSCLC
[22] = test system: OVCAR-3 ovarian
[23] = test system: MOLT-4 leukemia
[24] = test system: KM12 colon
[25] = test system: IGROV1 ovarian
[26] = test system: A498 renal
[27] = test system: UO-31 renal
[28] = test system: TK-10 renal
[29] = test system: MALME-3M melanoma
[30] = test system: M19-MEL melanoma
[31] = test system: HCC-2998 colon
[32] = test system: SNB-19 CNS
[33] = test system: HCT-116 colon
[34] = test system: ACHN renal
[35] = test system: SK-MEL-5 melanoma
[36] = test system: HOP-18 NSCLC
[37] = test system: DMS 114 small cell lung
[38] = test system: SNB-78 CNS
[39] = test system: DMS 273 small cell lung
[40] = test system: COLO 205 colon
[41] = test system: HL-60(TB) leukemia
[42] = test system: OVCAR-5 ovarian
[43] = test system: KM20L2 colon
[44] = test system: NCI-H460 lung
[45] = test system: SK-MEL-2 melanoma
[46] = test system: UACC-257 melanoma
[47] = test system: HT29 colon
[48] = test system: SNB-75 CNS
[49] = test system: 786-0 renal
[50] = test system: CCRF-CEM leukemia
[51] = test system: M14 melanoma
[52] = test system: NCI-H226 lung
[53] = test system: OVCAR-8 ovarian
[54] = test system: K-562 leukemia
[55] = test system: CAKI-1 renal
[56] = test system: SR leukemia
[57] = test system: HOP-92 NSCLC

## O=C1c2ccccc2C2(O)Nc3c(ccc4ccccc34)C12O (stereo unspecified)
[1]
  TGI: > 100 µM
[2]
  TGI: > 100 µM
[3]
  TGI: > 100 µM
[4]
  TGI: > 100 µM
[5]
  TGI: > 100 µM
[6]
  TGI: > 100 µM
[7]
  TGI: > 100 µM
[8]
  TGI: > 100 µM
[9]
  TGI: > 100 µM
[10]
  TGI: > 100 µM
[11]
  TGI: > 100 µM
[12]
  TGI: > 100 µM
[13]
  TGI: > 100 µM
[14]
  TGI: > 100 µM
[15]
  TGI: > 100 µM
[16]
  TGI: > 100 µM
[17]
  TGI: > 100 µM
[18]
  TGI: > 100 µM
[19]
  TGI: > 100 µM
[20]
  TGI: > 100 µM
[21]
  TGI: > 100 µM
[22]
  TGI: > 100 µM
[23]
  TGI: > 100 µM
[24]
  TGI: > 100 µM
[25]
  TGI: > 100 µM
[26]
  TGI: > 100 µM
[27]
  TGI: > 100 µM
[28]
  TGI: > 100 µM
[29]
  TGI: > 100 µM
[30]
  TGI: > 100 µM
[31]
  TGI: > 100 µM
[32]
  TGI: > 100 µM
[33]
  TGI: > 100 µM
[34]
  TGI: > 100 µM
[35]
  TGI: > 100 µM
[36]
  TGI: > 100 µM
[37]
  TGI: > 100 µM
[38]
  TGI: > 100 µM
[39]
  TGI: > 100 µM
[40]
  TGI: > 100 µM
[41]
  TGI: > 100 µM
[42]
  TGI: > 100 µM
[43]
  TGI: > 100 µM
[44]
  TGI: > 100 µM
[45]
  TGI: > 100 µM
[46]
  TGI: > 100 µM
[47]
  TGI: > 100 µM
[48]
  TGI: > 100 µM
[49]
  TGI: > 100 µM
[50]
  TGI: > 100 µM
[51]
  TGI: > 100 µM
[52]
  TGI: > 100 µM
[53]
  TGI: > 100 µM
[54]
  TGI: > 100 µM
[55]
  TGI: > 100 µM

## COC1CC(OC)C2OC(c3ccccc3)OCC2O1 (stereo unspecified)
[2]
  TGI: > 100 µM
[3]
  TGI: > 100 µM
[4]
  TGI: > 100 µM
[5]
  TGI: > 100 µM
[6]
  TGI: > 100 µM
[8]
  TGI: > 100 µM
[9]
  TGI: > 100 µM
[10]
  TGI: > 100 µM
[12]
  TGI: > 100 µM
[13]
  TGI: > 100 µM
[14]
  TGI: > 100 µM
[15]
  TGI: > 100 µM
[16]
  TGI: > 100 µM
[17]
  TGI: > 100 µM
[18]
  TGI: > 100 µM
[19]
  TGI: > 100 µM
[20]
  TGI: > 100 µM
[21]
  TGI: > 100 µM
[22]
  TGI: > 100 µM
[23]
  TGI: > 100 µM
[24]
  TGI: > 100 µM
[25]
  TGI: > 100 µM
[27]
  TGI: > 100 µM
[28]
  TGI: > 100 µM
[29]
  TGI: > 100 µM
[30]
  TGI: > 100 µM
[31]
  TGI: > 100 µM
[33]
  TGI: > 100 µM
[34]
  TGI: > 100 µM
[35]
  TGI: > 100 µM
[36]
  TGI: > 100 µM
[38]
  TGI: > 100 µM
[41]
  TGI: > 100 µM
[42]
  TGI: > 100 µM
[43]
  TGI: > 100 µM
[44]
  TGI: > 100 µM
[45]
  TGI: > 100 µM
[46]
  TGI: > 100 µM
[47]
  TGI: > 100 µM
[48]
  TGI: > 100 µM
[49]
  TGI: > 100 µM
[50]
  TGI: > 100 µM
[51]
  TGI: > 100 µM
[53]
  TGI: > 100 µM
[56]
  TGI: > 100 µM
[54]
  TGI: > 100 µM

## CCOC(=O)[C@@]12C(C)=CC(=O)O[C@]1(C)C[C@H]2C#N
[1]
  TGI: > 100 µM
[2]
  TGI: > 100 µM
[3]
  TGI: > 100 µM
[4]
  TGI: > 100 µM
[5]
  TGI: > 100 µM
[6]
  TGI: > 100 µM
[7]
  TGI: > 100 µM
[8]
  TGI: > 100 µM
[9]
  TGI: > 100 µM
[10]
  TGI: > 100 µM
[11]
  TGI: > 100 µM
[12]
  TGI: > 100 µM
[13]
  TGI: > 100 µM
[14]
  TGI: > 100 µM
[15]
  TGI: > 100 µM
[16]
  TGI: > 100 µM
[57]
  TGI: > 100 µM
[17]
  TGI: > 100 µM
[18]
  TGI: > 100 µM
[20]
  TGI: > 100 µM
[21]
  TGI: > 100 µM
[22]
  TGI: > 100 µM
[23]
  TGI: > 100 µM
[24]
  TGI: > 100 µM
[25]
  TGI: > 100 µM
[26]
  TGI: > 100 µM
[27]
  TGI: > 100 µM
[28]
  TGI: > 100 µM
[29]
  TGI: > 100 µM
[30]
  TGI: > 100 µM
[31]
  TGI: > 100 µM
[32]
  TGI: > 100 µM
[33]
  TGI: > 100 µM
[34]
  TGI: > 100 µM
[35]
  TGI: > 100 µM
[36]
  TGI: > 100 µM
[37]
  TGI: > 100 µM
[38]
  TGI: > 100 µM
[39]
  TGI: > 100 µM
[40]
  TGI: > 100 µM
[41]
  TGI: > 100 µM
[43]
  TGI: > 100 µM
[44]
  TGI: > 100 µM
[45]
  TGI: > 100 µM
[46]
  TGI: > 100 µM
[47]
  TGI: > 100 µM
[48]
  TGI: > 100 µM
[49]
  TGI: > 100 µM
[50]
  TGI: > 100 µM
[51]
  TGI: > 100 µM
[52]
  TGI: > 100 µM
[53]
  TGI: > 100 µM
[54]
  TGI: > 100 µM

## COC1OC(C)C(OC(=O)C(C)(C)C)C(OS(=O)(=O)c2ccc(C)cc2)C1OS(=O)(=O)c1ccc(C)cc1 (stereo unspecified)
[1]
  TGI: > 100 µM
[2]
  TGI: > 100 µM
[3]
  TGI: > 100 µM
[4]
  TGI: > 100 µM
[5]
  TGI: > 100 µM
[6]
  TGI: > 100 µM
[7]
  TGI: > 100 µM
[8]
  TGI: > 100 µM
[9]
  TGI: > 100 µM
[10]
  TGI: > 100 µM
[11]
  TGI: > 100 µM
[14]
  TGI: > 100 µM
[15]
  TGI: > 100 µM
[16]
  TGI: > 100 µM
[17]
  TGI: > 100 µM
[18]
  TGI: > 100 µM
[19]
  TGI: > 100 µM
[20]
  TGI: > 100 µM
[22]
  TGI: > 100 µM
[23]
  TGI: > 100 µM
[24]
  TGI: > 100 µM
[25]
  TGI: > 100 µM
[27]
  TGI: > 100 µM
[29]
  TGI: > 100 µM
[30]
  TGI: > 100 µM
[31]
  TGI: > 100 µM
[32]
  TGI: > 100 µM
[33]
  TGI: > 100 µM
[34]
  TGI: > 100 µM
[35]
  TGI: > 100 µM
[36]
  TGI: > 100 µM
[37]
  TGI: > 100 µM
[38]
  TGI: > 100 µM
[39]
  TGI: > 100 µM
[40]
  TGI: > 100 µM
[41]
  TGI: > 100 µM
[42]
  TGI: > 100 µM
[43]
  TGI: > 100 µM
[44]
  TGI: > 100 µM
[45]
  TGI: > 100 µM
[46]
  TGI: > 100 µM
[47]
  TGI: > 100 µM
[48]
  TGI: > 100 µM
[49]
  TGI: > 100 µM
[50]
  TGI: > 100 µM
[51]
  TGI: > 100 µM
[52]
  TGI: > 100 µM
[53]
  TGI: > 100 µM
[56]
  TGI: > 100 µM
[54]
  TGI: > 100 µM
[55]
  TGI: > 100 µM

## C=C1CC(c2ccc(O)c(OC)c2)Oc2c(OC)cccc21 (stereo unspecified)
[1]
  TGI: > 100 µM
[2]
  TGI: > 100 µM
[4]
  TGI: > 100 µM
[5]
  TGI: > 100 µM
[6]
  TGI: > 100 µM
[7]
  TGI: > 100 µM
[8]
  TGI: > 100 µM
[9]
  TGI: > 100 µM
[10]
  TGI: > 100 µM
[12]
  TGI: > 100 µM
[14]
  TGI: > 100 µM
[15]
  TGI: 52.2 µM
[16]
  TGI: > 100 µM
[57]
  TGI: 53.1 µM
[17]
  TGI: > 100 µM
[18]
  TGI: > 100 µM
[19]
  TGI: 49.5 µM
[20]
  TGI: > 100 µM
[21]
  TGI: > 100 µM
[22]
  TGI: > 100 µM
[23]
  TGI: > 100 µM
[24]
  TGI: > 100 µM
[25]
  TGI: > 100 µM
[27]
  TGI: > 100 µM
[28]
  TGI: > 100 µM
[30]
  TGI: > 100 µM
[31]
  TGI: > 100 µM
[32]
  TGI: > 100 µM
[33]
  TGI: > 100 µM
[34]
  TGI: > 100 µM
[35]
  TGI: > 100 µM
[36]
  TGI: > 100 µM
[37]
  TGI: 56.1 µM
[38]
  TGI: > 100 µM
[39]
  TGI: 55.2 µM
[40]
  TGI: > 100 µM
[41]
  TGI: 49.9 µM
[42]
  TGI: > 100 µM
[43]
  TGI: > 100 µM
[44]
  TGI: > 100 µM
[46]
  TGI: > 100 µM
[47]
  TGI: > 100 µM
[48]
  TGI: > 100 µM
[49]
  TGI: > 100 µM
[50]
  TGI: 93.7 µM
[51]
  TGI: > 100 µM
[52]
  TGI: > 100 µM
[53]
  TGI: > 100 µM
[56]
  TGI: 61.3 µM
[54]
  TGI: 64.8 µM
[55]
  TGI: > 100 µM

Source: PubChem BioAssay (NCI)
